The subject of test [1] is primary DRG neurons. As to the kind of experiment: Axon growth of primary adult DRG neurons. The settings on record: CH02 20 μM + Torin1 1 μM, 48 h, n = 62. Format: cell-based, Sprague-Dawley rat. As to the method:
(§1) Figure 3 Effect of the CH02 peptide on axon growth and neuron survival. (A) Representative images of the CH02 peptide effect on axon growth in adult primary DRG neurons. DRG neurons were obtained from adult Sprague-Dawley rats. After 12-h of culture, neurons were stimulated with CH02 or bFGF for 48 h. Axonal outgrowth was assessed by immunocytochemistry using an antibody against β-tubulin, an axonal marker. Images were acquired from random neurons by fluorescence microscopy. Scale bars = 50 μm. (B) Quantification of the longest axon length of each neuron randomly selected in three independent experiments from (A), using Image-Pro Plus 6.0 software (n = 48 for each condition; *p < 0.05, ****p < 0.0001 by one-way ANOVA with Dunnett's test; ns, not significant; mean ± SD). (C) Representative images of the CH02 effect on axon growth in ex vivo cultured adult DRG explants. The axon is shown in fluorescence (β3-tubulin) images. Scale bars = 100 μm. (D) Quantification of axon growth of DRG explants from (C) using the Neurite-J software (n=4 for each condition; *control vs. CH02; #control vs. bFGF; *p < 0.05, **p < 0.01, ***p < 0.001, #p < 0.05, ##p < 0.01 by two-way ANOVA with Dunnett's test; ns, not significant; mean ± SEM). (E) Cell cytotoxicity assay of primary DRG neurons induced by H2O2. LDH released from damaged cell membranes was detected by an LDH assay kit. The results are expressed as the mean ± SEM (**p < 0.01 by one-way ANOVA with Dunnett's test; ns, not significant, compared with the control group). (F) Representative TUNEL staining of apoptotic neurons induced by H2O2 in the control, CH02, and FGF2 groups. Scale bars = 50 μm. Apoptotic neurons were detected by a TUNEL apoptosis assay kit. TUNEL (green); NeuN, neuronal marker (red); DAPI (blue). (G) Quantification of TUNEL-positive neurons from (F) (n = 3 for each condition; **p < 0.01 by one-way ANOVA with Dunnett's test; ns, not significant, compared with the control group). DRG neurons were obtained from adult Sprague-Dawley rats. […]

The subject of test [2] is DRG explants. As to the kind of experiment: Axon growth of ex vivo cultured adult DRG explants. The test is classed as cell-based, Sprague-Dawley rat. The settings on record: CH02 20 μM + Torin1 1 μM, 4 days, n = 4. As to the method: as §1, with “(F) Representative TUNEL staining of apoptotic neurons induced by H2O2 in the control, CH02, and FGF2 groups. Scale bars = 50 μm.” left out, “TUNEL (green); NeuN, neuronal marker (red); DAPI (blue).” left out, “group).” for “group). DRG neurons were obtained from adult Sprague-Dawley rats.”
DRG explants were harvested from adult Sprague-Dawley rats (220-250 g) and placed in a 3.5 cm dish containing 2 mL of ice-cold neurobasal medium supplemented with 1 × B27, 4 mM Glutamax and 3× penicillin/streptomycin (Pen/Strep). […] After 7 days of culture, axon growth was measured. […]

For test [3], the system named is dorsal root injury (DRI) model. As to the kind of experiment: Von Frey test after dorsal root crush injury. The conditions noted are these: rats after C5-T1 dorsal root crush, up to 8 weeks, n = 5. Format: in vivo, Sprague-Dawley rat. As to the method:
(§2) Animals were anesthetized by intraperitoneal injection of pentobarbital sodium (40 mg/kg body weight) and local injection of 0.5% lidocaine. Under sterile conditions, a skin incision between the C4 and T2 spinous processes was made using a no. 10 scalpel blade. Subsequent surgeries were performed under a stereomicroscope. The muscles attached to the lamina were separated and removed using a surgical blade and microscissors to expose the lamina. A right hemilaminectomy on the C5-T1 vertebrae was performed using a fine rongeur to expose the right C5-T1 DRGs and associated dorsal roots. After dura mater opening, a concurrent C5 -T1 dorsal root crush injury was performed using no. 7 forceps. The tines of the forceps were inserted above and below the root, halfway between the dorsal root ganglia and DREZ. […]
Animals treated with CH02 or FGF2 (n = 5 animals per group) were assessed using the following behavioral tests: […]
After an acclimation period, the animal was stimulated using a Von Frey-type 0.5 mm filament, which was placed below the center of the plantar surface of the tested paw with increasing pressure. On every test day, each foot (left front and right front) was measured 5 times at 5-min intervals, and the number of paw withdrawals was recorded.

The test system of test [4] is dorsal root injury (DRI) model. Kind of test: Plantar test after dorsal root crush injury. The test is classed as in vivo, Sprague-Dawley rat. The conditions noted are these: rats after C5-T1 dorsal root crush, up to 8 weeks, n = 5. How it is done:
as §2, with “DREZ. Each root was crushed three times, five times each, to ensure that the dorsal roots were crushed to sever all the axons within the root completely.” for “DREZ.”
Animals treated with CH02 or FGF2 (n = 5 animals per group) were assessed using the following behavioral tests:
Animals were acclimated to the testing room for at least 60 min before baseline testing, conducted before any surgical procedure. After dorsal root crush injuries, temperature sensation was measured twice a week for 8 weeks. […] Simultaneously, the paw withdrawal latency was recorded. […]

With `CCC(=O)N1CCN(c2ccc(-n3c(=O)ccc4cnc5ccc(-c6cnc7ccccc7c6)cc5c43)cc2C(F)(F)F)CC1` [Torin1], the “effect of mTOR inhibitor on CH02-promoted axon growth, primary neurons” value in test [1] is given as “greatly reduced the effect of the CH02 peptide in promoting axon growth”. The “effect of mTOR inhibitor on CH02-promoted axon growth, DRG explants” value in test [2] was “greatly reduced the effect of the CH02 peptide in promoting axon growth”.

Turning to FGF2, the pressure sensation recovery result in test [3] is reported as “significantly improved”. Also, the thermal sensation recovery entry in test [4] is on record as “significantly improved”.
